What was measured:
Assay in all cases: Greenhouse herbicidal activity assay, post-emergence
Format in all cases: in vivo
Conditions in all cases: Post-emergence test, rate 150 g a.i./hm^2; grade by fresh weight inhibition rate
Eclipta prostrata = tested on: Eclipta prostrata
Procedure, shortened: (§1)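 Weeds and crops grown in pots of nutrient soil in a growth chamber to the 3-6 leaf stage, then foliar-sprayed and air-dried. Fresh weight inhibition scored 14-21 days after treatment and graded A (≥80%) through E (<20%).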

Leptochloa chinensis = tested on: Leptochloa chinensis
Procedure, shortened: as §1

Echinochloa crusgalli = tested on: Echinochloa crusgalli
Procedure, shortened: as §1

Digitaria sanguinalis = tested on: Digitaria sanguinalis
Procedure, shortened: as §1

Cyperus iria = tested on: Cyperus iria
Procedure, shortened: as §1

For `CCC(C)Sc1c(S(C)(=O)=O)ccc(C(=O)Nc2nnco2)c1Cl` (single isomer, unassigned) [Compound 3-283], the “Control efficacy grade, Eclipta prostrata” value (Eclipta prostrata) was “A (Fresh weight inhibition rate≥80% to 100%)”, the “Control efficacy grade, Leptochloa chinensis” value (Leptochloa chinensis) was “A (Fresh weight inhibition rate≥80% to 100%)” and the “Control efficacy grade, Echinochloa crusgalli” value (Echinochloa crusgalli) was “A (Fresh weight inhibition rate≥80% to 100%)”. The “Control efficacy grade, Digitaria sanguinalis” value (Digitaria sanguinalis) was “A (Fresh weight inhibition rate≥80% to 100%)” and the “Control efficacy grade, Cyperus iria” value (Cyperus iria) was “A (Fresh weight inhibition rate≥80% to 100%)”.
With `CCc1nnc(NC(=O)c2ccc(S(C)(=O)=O)c([S+]([O-])CCCl)c2Cl)o1` (racemic) [Compound 3-495] the “Control efficacy grade, Eclipta prostrata” value (Eclipta prostrata) was “A (Fresh weight inhibition rate≥80% to 100%)”, the “Control efficacy grade, Leptochloa chinensis” value (Leptochloa chinensis) was “A (Fresh weight inhibition rate≥80% to 100%)” and the “Control efficacy grade, Echinochloa crusgalli” value (Echinochloa crusgalli) was “A (Fresh weight inhibition rate≥80% to 100%)”. For the same compound, the “Control efficacy grade, Digitaria sanguinalis” value (Digitaria sanguinalis) was “A (Fresh weight inhibition rate≥80% to 100%)” and the “Control efficacy grade, Cyperus iria” value (Cyperus iria) was “A (Fresh weight inhibition rate≥80% to 100%)”.
In the case of `CS(=O)(=O)c1ccc(C(=O)Nc2nnco2)c(Cl)c1SCCC#N` [Compound 3-373], the “Control efficacy grade, Eclipta prostrata” value (Eclipta prostrata) is reported as “A (Fresh weight inhibition rate≥80% to 100%)”, the “Control efficacy grade, Leptochloa chinensis” value (Leptochloa chinensis) is reported as “A (Fresh weight inhibition rate≥80% to 100%)” and the “Control efficacy grade, Echinochloa crusgalli” value (Echinochloa crusgalli) is reported as “A (Fresh weight inhibition rate≥80% to 100%)”. For the same compound, the “Control efficacy grade, Digitaria sanguinalis” value (Digitaria sanguinalis) was “A (Fresh weight inhibition rate≥80% to 100%)” and the “Control efficacy grade, Cyperus iria” value (Cyperus iria) was “A (Fresh weight inhibition rate≥80% to 100%)”.
With `CS(=O)(=O)c1ccc(C(=O)Nc2nnco2)c(Cl)c1[S+]([O-])CC(F)F` (racemic) [Compound 3-329] the “Control efficacy grade, Eclipta prostrata” value (Eclipta prostrata) was “A (Fresh weight inhibition rate≥80% to 100%)”, the “Control efficacy grade, Leptochloa chinensis” value (Leptochloa chinensis) was “A (Fresh weight inhibition rate≥80% to 100%)” and the “Control efficacy grade, Echinochloa crusgalli” value (Echinochloa crusgalli) was “A (Fresh weight inhibition rate≥80% to 100%)”. The “Control efficacy grade, Digitaria sanguinalis” value (Digitaria sanguinalis) was “A (Fresh weight inhibition rate≥80% to 100%)” and the “Control efficacy grade, Cyperus iria” value (Cyperus iria) was “A (Fresh weight inhibition rate≥80% to 100%)”.
In the case of `CS(=O)(=O)c1ccc(C(=O)Nc2nnc(C3CC3)o2)c(Cl)c1[S+]([O-])CCCl` (racemic) [Compound 3-727], the “Control efficacy grade, Eclipta prostrata” value (Eclipta prostrata) is reported as “A (Fresh weight inhibition rate≥80% to 100%)”, the “Control efficacy grade, Leptochloa chinensis” value (Leptochloa chinensis) is reported as “A (Fresh weight inhibition rate≥80% to 100%)” and the “Control efficacy grade, Echinochloa crusgalli” value (Echinochloa crusgalli) is reported as “A (Fresh weight inhibition rate≥80% to 100%)”. For the same compound, the “Control efficacy grade, Digitaria sanguinalis” value (Digitaria sanguinalis) was “A (Fresh weight inhibition rate≥80% to 100%)” and the “Control efficacy grade, Cyperus iria” value (Cyperus iria) was “A (Fresh weight inhibition rate≥80% to 100%)”.
In the case of `CC(C)[S+]([O-])c1c(S(C)(=O)=O)ccc(C(=O)Nc2nnc(C3CC3)o2)c1Cl` (single isomer, unassigned) [Compound 3-623], the “Control efficacy grade, Eclipta prostrata” value (Eclipta prostrata) is reported as “A (Fresh weight inhibition rate≥80% to 100%)”, the “Control efficacy grade, Leptochloa chinensis” value (Leptochloa chinensis) is reported as “A (Fresh weight inhibition rate≥80% to 100%)” and the “Control efficacy grade, Echinochloa crusgalli” value (Echinochloa crusgalli) is reported as “A (Fresh weight inhibition rate≥80% to 100%)”. For the same compound, the “Control efficacy grade, Digitaria sanguinalis” value (Digitaria sanguinalis) was “A (Fresh weight inhibition rate≥80% to 100%)” and the “Control efficacy grade, Cyperus iria” value (Cyperus iria) was “A (Fresh weight inhibition rate≥80% to 100%)”.
In the case of `CCCC[S+]([O-])c1c(S(C)(=O)=O)ccc(C(=O)Nc2nonc2C)c1Cl` (racemic) [Compound 4-12], the “Control efficacy grade, Eclipta prostrata” value (Eclipta prostrata) is reported as “A (Fresh weight inhibition rate≥80% to 100%)”, the “Control efficacy grade, Leptochloa chinensis” value (Leptochloa chinensis) is reported as “B (Fresh weight inhibition rate≥260% to <80%)” and the “Control efficacy grade, Echinochloa crusgalli” value (Echinochloa crusgalli) is reported as “A (Fresh weight inhibition rate≥80% to 100%)”. The “Control efficacy grade, Digitaria sanguinalis” value (Digitaria sanguinalis) was “A (Fresh weight inhibition rate≥80% to 100%)” and the “Control efficacy grade, Cyperus iria” value (Cyperus iria) was “A (Fresh weight inhibition rate≥80% to 100%)”.
With `CCC[S+]([O-])c1c(S(C)(=O)=O)ccc(C(=O)Nc2nnc(C)o2)c1Cl` (racemic) [Compound 3-2] the “Control efficacy grade, Eclipta prostrata” value (Eclipta prostrata) was “A (Fresh weight inhibition rate≥80% to 100%)”, the “Control efficacy grade, Leptochloa chinensis” value (Leptochloa chinensis) was “A (Fresh weight inhibition rate≥80% to 100%)” and the “Control efficacy grade, Echinochloa crusgalli” value (Echinochloa crusgalli) was “A (Fresh weight inhibition rate≥80% to 100%)”. For the same compound, the “Control efficacy grade, Digitaria sanguinalis” value (Digitaria sanguinalis) was “A (Fresh weight inhibition rate≥80% to 100%)” and the “Control efficacy grade, Cyperus iria” value (Cyperus iria) was “A (Fresh weight inhibition rate≥80% to 100%)”.
`CS(=O)(=O)c1ccc(C(=O)Nc2nnco2)c(Cl)c1[S+]([O-])C1CC1` (racemic) [Compound 3-304] was tested, and the “Control efficacy grade, Eclipta prostrata” value (Eclipta prostrata) was “A (Fresh weight inhibition rate≥80% to 100%)”, the “Control efficacy grade, Leptochloa chinensis” value (Leptochloa chinensis) was “A (Fresh weight inhibition rate≥80% to 100%)” and the “Control efficacy grade, Echinochloa crusgalli” value (Echinochloa crusgalli) was “A (Fresh weight inhibition rate≥80% to 100%)”. The “Control efficacy grade, Digitaria sanguinalis” value (Digitaria sanguinalis) was “A (Fresh weight inhibition rate≥80% to 100%)” and the “Control efficacy grade, Cyperus iria” value (Cyperus iria) was “A (Fresh weight inhibition rate≥80% to 100%)”.
`CCC(C)[S+]([O-])c1c(S(C)(=O)=O)ccc(C(=O)Nc2nnc(C3CC3)o2)c1Cl` (mixture of isomers) [Compound 3-633] was tested, and the “Control efficacy grade, Eclipta prostrata” value (Eclipta prostrata) was “A (Fresh weight inhibition rate≥80% to 100%)”, the “Control efficacy grade, Leptochloa chinensis” value (Leptochloa chinensis) was “A (Fresh weight inhibition rate≥80% to 100%)” and the “Control efficacy grade, Echinochloa crusgalli” value (Echinochloa crusgalli) was “A (Fresh weight inhibition rate≥80% to 100%)”. The “Control efficacy grade, Digitaria sanguinalis” value (Digitaria sanguinalis) was “A (Fresh weight inhibition rate≥80% to 100%)” and the “Control efficacy grade, Cyperus iria” value (Cyperus iria) was “A (Fresh weight inhibition rate≥80% to 100%)”.
`CC(C)[S+]([O-])c1c(S(C)(=O)=O)ccc(C(=O)Nc2nnn[nH]2)c1Cl` (racemic) [Compound 1-83] was tested, and the “Control efficacy grade, Eclipta prostrata” value (Eclipta prostrata) was “A (Fresh weight inhibition rate≥80% to 100%)”, the “Control efficacy grade, Leptochloa chinensis” value (Leptochloa chinensis) was “A (Fresh weight inhibition rate≥80% to 100%)” and the “Control efficacy grade, Echinochloa crusgalli” value (Echinochloa crusgalli) was “A (Fresh weight inhibition rate≥80% to 100%)”. The “Control efficacy grade, Digitaria sanguinalis” value (Digitaria sanguinalis) was “A (Fresh weight inhibition rate≥80% to 100%)” and the “Control efficacy grade, Cyperus iria” value (Cyperus iria) was “A (Fresh weight inhibition rate≥80% to 100%)”.
`Cn1ncnc1NC(=O)c1ccc(S(C)(=O)=O)c([S+]([O-])CC2CC2)c1Cl` (racemic) [Compound 2-28] was tested, and the “Control efficacy grade, Eclipta prostrata” value (Eclipta prostrata) was “A (Fresh weight inhibition rate≥80% to 100%)”, the “Control efficacy grade, Leptochloa chinensis” value (Leptochloa chinensis) was “A (Fresh weight inhibition rate≥80% to 100%)” and the “Control efficacy grade, Echinochloa crusgalli” value (Echinochloa crusgalli) was “A (Fresh weight inhibition rate≥80% to 100%)”. For the same compound, the “Control efficacy grade, Digitaria sanguinalis” value (Digitaria sanguinalis) was “A (Fresh weight inhibition rate≥80% to 100%)” and the “Control efficacy grade, Cyperus iria” value (Cyperus iria) was “A (Fresh weight inhibition rate≥80% to 100%)”.
In the case of `CC(C)c1nnc(NC(=O)c2ccc(S(C)(=O)=O)c([S+]([O-])CC(F)(F)F)c2Cl)o1` (racemic) [Compound 3-556], the “Control efficacy grade, Eclipta prostrata” value (Eclipta prostrata) is reported as “A (Fresh weight inhibition rate≥80% to 100%)”, the “Control efficacy grade, Leptochloa chinensis” value (Leptochloa chinensis) is reported as “A (Fresh weight inhibition rate≥80% to 100%)” and the “Control efficacy grade, Echinochloa crusgalli” value (Echinochloa crusgalli) is reported as “B (Fresh weight inhibition rate≥260% to <80%)”. The “Control efficacy grade, Digitaria sanguinalis” value (Digitaria sanguinalis) was “B (Fresh weight inhibition rate≥260% to <80%)” and the “Control efficacy grade, Cyperus iria” value (Cyperus iria) was “A (Fresh weight inhibition rate≥80% to 100%)”.
For `C=CCSc1c(S(C)(=O)=O)ccc(C(=O)Nc2nnc(C)o2)c1Cl` [Compound 3-112], the “Control efficacy grade, Eclipta prostrata” value (Eclipta prostrata) was “A (Fresh weight inhibition rate≥80% to 100%)”, the “Control efficacy grade, Leptochloa chinensis” value (Leptochloa chinensis) was “A (Fresh weight inhibition rate≥80% to 100%)” and the “Control efficacy grade, Echinochloa crusgalli” value (Echinochloa crusgalli) was “A (Fresh weight inhibition rate≥80% to 100%)”. For the same compound, the “Control efficacy grade, Digitaria sanguinalis” value (Digitaria sanguinalis) was “A (Fresh weight inhibition rate≥80% to 100%)” and the “Control efficacy grade, Cyperus iria” value (Cyperus iria) was “A (Fresh weight inhibition rate≥80% to 100%)”.

Source: patent publication US20250223268A1, “4-Methylsulfonylbenzamide Compound, Preparation Method, Herbicidal Composition And Use” (Jiangsu Flag Chemical Industry Co., Ltd., priority 2022, published 2025)
